The text below walks through data of patent US10059713B2 (Takeda Pharmaceutical Company Limited, priority 2014, dated 2018).

pEC50: −log10 of the molar value.

Broadly, the pEC50 is −log10 of the EC50, conventionally taken in molar units.

Chain of human GPR43 (O15552 whole entry): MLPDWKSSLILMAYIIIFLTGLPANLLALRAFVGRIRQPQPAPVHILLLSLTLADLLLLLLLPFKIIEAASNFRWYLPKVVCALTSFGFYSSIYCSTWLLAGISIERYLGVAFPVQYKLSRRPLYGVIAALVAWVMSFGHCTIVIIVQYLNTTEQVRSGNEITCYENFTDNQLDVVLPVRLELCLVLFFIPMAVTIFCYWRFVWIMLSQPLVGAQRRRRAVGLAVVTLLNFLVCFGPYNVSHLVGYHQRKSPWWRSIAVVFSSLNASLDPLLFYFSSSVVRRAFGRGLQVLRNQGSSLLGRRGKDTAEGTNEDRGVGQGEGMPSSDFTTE

This assay concerns the target human GPR43 (Homo sapiens (Human), UniProt O15552). The assay can be described thus: Ca-Flux functional assay: determination of agonist/positive allosteric modulator (PAM) activity. The format is cell-based. Particulars: CHO-K1 Gα16 cells stably expressing human GPR43; compound added with EC20 sodium acetate; intracellular Ca2+ by FLIPR; does not distinguish agonist from PAM. In short, it runs like this:
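Agonist or PAM activity read as intracellular Ca2+ rise by FLIPR after adding compound plus EC20 acetate, acetate EC20 set from a prior curve. Cells: CHO-K1 Gα16 with stable human GPR43. EC50 from ten-point half-log curves starting 10 μM.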
`Cc1nc(N2CCOC3(CCCC3)C2)c2[nH]c(N)c(S(=O)(=O)c3cccc(F)c3)c2n1` [Example 199, 7-(3-fluorobenzenesulfonyl)-2-methyl-4-{6-oxa-9-azaspiro[4.5]decan-9-yl}-5H-pyrrolo[3,2-d]pyrimidin-6-amine] gave a pEC50 of 7.60.
On to `Cc1nc(N2C[C@@H](C)O[C@H](C)C2)c2[nH]c(N)c(S(=O)(=O)c3cccc(F)c3)c2n1` [Example 200, 4-[(2R,6R)-2,6-dimethylmorpholin-4-yl]-7-(3-fluorobenzenesulfonyl)-2-methyl-5H-pyrrolo[3,2-d]pyrimidin-6-amine], for which the pEC50 is 7.60.
In turn, `Nc1[nH]c2c(OCC3CCCC3)ncnc2c1S(=O)(=O)c1ccccc1` [Example 201, 7-(benzenesulfonyl)-4-(cyclopentylmethoxy)-5H-pyrrolo[3,2-d]pyrimidin-6-amine] showed a pEC50 of 7.30.
Molecule `Nc1[nH]c2c(OC3CCCC3)ncnc2c1S(=O)(=O)c1ccccc1` [Example 202, 7-(benzenesulfonyl)-4-(cyclopentyloxy)-5H-pyrrolo[3,2-d]pyrimidin-6-amine] gave a pEC50 of 7.30.
`Cc1nc(N2C[C@@H](C)O[C@H](C)C2)c2[nH]c(N)c(S(=O)(=O)c3ccccc3F)c2n1` [Example 203, 4-[(2R,6R)-2,6-dimethylmorpholin-4-yl]-7-(2-fluorobenzenesulfonyl)-2-methyl-5H-pyrrolo[3,2-d]pyrimidin-6-amine] showed a pEC50 of 7.96.
Molecule `COc1ccc(S(=O)(=O)c2c(N)[nH]c3c(N4CCOC(C)(C)C4)nc(C)nc23)cc1` [Example 204, 4-(2,2-dimethylmorpholin-4-yl)-7-(4-methoxybenzenesulfonyl)-2-methyl-5H-pyrrolo[3,2-d]pyrimidin-6-amine] showed a pEC50 of 7.82.
The figure for `Cc1nc(N2CCOC3(CC3)C2)c2[nH]c(N)c(S(=O)(=O)c3ccccc3)c2n1` [Example 205, 7-(benzenesulfonyl)-2-methyl-4-{4-oxa-7-azaspiro[2.5]octan-7-yl}-5H-pyrrolo[3,2-d]pyrimidin-6-amine] is 8.15; for `CC1CN(c2ncnc3c(S(=O)(=O)C4CCN(C(=O)OCc5ccccc5)CC4)c(N)[nH]c23)CCO1` (stereo not shown) [Example 206, benzyl 4-{[6-amino-4-(2-methylmorpholin-4-yl)-5H-pyrrolo[3,2-d]pyrimidin-7-yl]sulfonyl}piperidine-1-carboxylate] it is 5.58; for `Cc1nc(N2CCC3(CC2)CC3)c2[nH]c(N)c(S(=O)(=O)c3ccccc3)c2n1` [Example 207, 4-{6-azaspiro[2.5]octan-6-yl}-7-(benzenesulfonyl)-2-methyl-5H-pyrrolo[3,2-d]pyrimidin-6-amine] it is 7.57.
With `Cc1nc(N2CCOC3(CC3)C2)c2[nH]c(N)c(S(=O)(=O)c3ccccc3F)c2n1` [Example 208, 7-(2-fluorobenzenesulfonyl)-2-methyl-4-{4-oxa-7-azaspiro[2.5]octan-7-yl}-5H-pyrrolo[3,2-d]pyrimidin-6-amine], the pEC50 was 8.52.
The figure for `Cc1nc(C2CCCC2)c2[nH]c(N)c(S(=O)(=O)c3cccc(F)c3)c2n1` [Example 209, 4-cyclopentyl-7-(3-fluorobenzenesulfonyl)-2-methyl-5H-pyrrolo[3,2-d]pyrimidin-6-amine] is 6.52; for `CC1CC(Oc2ncnc3c(S(=O)(=O)c4ccccc4)c(N)[nH]c23)CC(C)O1` (stereo not shown) [Example 210, 7-(benzenesulfonyl)-4-[(2,6-dimethyloxan-4-yl)oxy]-5H-pyrrolo[3,2-d]pyrimidin-6-amine] it is 6.81; for `Nc1[nH]c2c(OC3CCC(F)(F)CC3)ncnc2c1S(=O)(=O)c1ccccc1` [Example 211, 7-(benzenesulfonyl)-4-[(4,4-difluorocyclohexyl)oxy]-5H-pyrrolo[3,2-d]pyrimidin-6-amine] it is 7.47.
The figure for `CC(Oc1ncnc2c(S(=O)(=O)c3ccccc3)c(N)[nH]c12)C1CCCC1` (stereo not shown) [Example 212, 7-(benzenesulfonyl)-4-(1-cyclopentylethoxy)-5H-pyrrolo[3,2-d]pyrimidin-6-amine] is 7.96.
The figure for `CCC(CC)Oc1ncnc2c(S(=O)(=O)c3ccccc3)c(N)[nH]c12` [Example 213, 7-(benzenesulfonyl)-4-(pentan-3-yloxy)-5H-pyrrolo[3,2-d]pyrimidin-6-amine] is 7.77; for `Cc1nc(N2CCC3(CC2)CC3)c2[nH]c(N)c(S(=O)(=O)c3ccccc3F)c2n1` [Example 214, 4-{6-azaspiro[2.5]octan-6-yl}-7-(2-fluorobenzenesulfonyl)-2-methyl-5H-pyrrolo[3,2-d]pyrimidin-6-amine] it is 8.05; for `Nc1[nH]c2c(N3CCOC4CCCC43)ncnc2c1S(=O)(=O)c1ccccc1` (stereo not shown) [Example 215, 7-(benzenesulfonyl)-4-{octahydrocyclopenta[b]morpholin-4-yl}-5H-pyrrolo[3,2-d]pyrimidin-6-amine] it is 7.21.
The molecule `N#CC1CN(c2ncnc3c(S(=O)(=O)c4ccccc4)c(N)[nH]c23)CCO1` (stereo not shown) [Example 216, 4-[6-amino-7-(benzenesulfonyl)-5H-pyrrolo[3,2-d]pyrimidin-4-yl]morpholine-2-carbonitrile] had a pEC50 of 6.93.
As for `Cc1nc(N2C[C@@H](C)OC[C@H]2C)c2[nH]c(N)c(S(=O)(=O)c3ccccc3)c2n1` [Example 217, 7-(benzenesulfonyl)-4-[(2R,5R)-2,5-dimethylmorpholin-4-yl]-2-methyl-5H-pyrrolo[3,2-d]pyrimidin-6-amine], the pEC50 was 8.22.
For `Cc1nc(N2CCO[C@@H](C)C2)c2[nH]c(N)c(S(=O)(=O)c3ccccc3F)c2n1` [Example 218, 7-(2-fluorobenzenesulfonyl)-2-methyl-4-[(2S)-2-methylmorpholin-4-yl]-5H-pyrrolo[3,2-d]pyrimidin-6-amine] the value was 8.70; for `Nc1[nH]c2c(N3CCC(F)(F)CC3)ccnc2c1S(=O)(=O)c1ccccc1` [Example 219, 3-(benzenesulfonyl)-7-(4,4-difluoropiperidin-1-yl)-1H-pyrrolo[3,2-b]pyridin-2-amine], 7.74; for `Cc1nc(N2C[C@H](C)OC[C@@H]2C)c2[nH]c(N)c(S(=O)(=O)c3ccccc3)c2n1` [Example 220, 7-(benzenesulfonyl)-4-[(2S,5S)-2,5-dimethylmorpholin-4-yl]-2-methyl-5H-pyrrolo[3,2-d]pyrimidin-6-amine], 7.68.
The figure for `CCC1(C)CN(c2ncnc3c(S(=O)(=O)c4ccccc4)c(N)[nH]c23)CCO1` (stereo not shown) [Example 221, 7-(benzenesulfonyl)-4-(2-ethyl-2-methylmorpholin-4-yl)-5H-pyrrolo[3,2-d]pyrimidin-6-amine] is 6.98; for `COc1cc(F)ccc1S(=O)(=O)c1c(N)[nH]c2c(N3CCOC(C)C3)ncnc12` (stereo not shown) [Example 222, 7-(4-fluoro-2-methoxybenzenesulfonyl)-4-(2-methylmorpholin-4-yl)-5H-pyrrolo[3,2-d]pyrimidin-6-amine] it is 5.39.
The figure for `Cc1nc(N2C[C@H](C)OC[C@@H]2C)c2[nH]c(N)c(S(=O)(=O)c3ccccc3F)c2n1` [Example 223, 4-[(2S,5S)-2,5-dimethylmorpholin-4-yl]-7-(2-fluorobenzenesulfonyl)-2-methyl-5H-pyrrolo[3,2-d]pyrimidin-6-amine] is 8.15; for `C=C(C)c1nc(C)nc2c(S(=O)(=O)c3ccccc3F)c(N)[nH]c12` [Example 224, 7-(2-fluorobenzenesulfonyl)-2-methyl-4-(prop-1-en-2-yl)-5H-pyrrolo[3,2-d]pyrimidin-6-amine] it is 7.07.
`Cc1nc(N2CCOC(C(F)(F)F)C2)c2[nH]c(N)c(S(=O)(=O)c3ccccc3)c2n1` (stereo not shown) [Example 225, 7-(benzenesulfonyl)-2-methyl-4-[2-(trifluoromethyl)morpholin-4-yl]-5H-pyrrolo[3,2-d]pyrimidin-6-amine] gave a pEC50 of 7.85.
For `Cc1nc(N2CCO[C@@H](C)C2)c2[nH]c(N)c(S(=O)(=O)c3ccccc3)c2n1` [Example 226, 7-(benzenesulfonyl)-2-methyl-4-[(2S)-2-methylmorpholin-4-yl]-5H-pyrrolo[3,2-d]pyrimidin-6-amine] the value was 7.89; for `Nc1[nH]c2c(C3=CCCCC3)nncc2c1S(=O)(=O)c1ccccc1` [Example 227, 3-(benzenesulfonyl)-7-(cyclohex-1-en-1-yl)-1H-pyrrolo[2,3-d]pyridazin-2-amine], 6.99.
In turn, `Nc1[nH]c2c(C3CCCCC3)nncc2c1S(=O)(=O)c1ccccc1` [Example 228, 3-(benzenesulfonyl)-7-cyclohexyl-1H-pyrrolo[2,3-d]pyridazin-2-amine] gave a pEC50 of 6.59.
For the molecule `Cc1nc(N2CCOC(C)C2)c2[nH]c(N)c(S(=O)(=O)c3cc(F)ccc3F)c2n1` (stereo not shown) [Example 229, 7-(2,5-difluorobenzenesulfonyl)-2-methyl-4-(2-methylmorpholin-4-yl)-5H-pyrrolo[3,2-d]pyrimidin-6-amine], the pEC50 is 8.15.
The figure for `Cc1nc(OC(C)C2CC2)c2[nH]c(N)c(S(=O)(=O)c3ccccc3)c2n1` (stereo not shown) [Example 230, 7-(benzenesulfonyl)-4-(1-cyclopropylethoxy)-2-methyl-5H-pyrrolo[3,2-d]pyrimidin-6-amine] is 7.66; for `Cc1nc(N2CCOC(C(F)(F)F)C2)c2[nH]c(N)c(S(=O)(=O)c3ccccc3F)c2n1` (stereo not shown) [Example 231, 7-(2-fluorobenzenesulfonyl)-2-methyl-4-[2-(trifluoromethyl)morpholin-4-yl]-5H-pyrrolo[3,2-d]pyrimidin-6-amine] it is 8.70.
`Cc1nc(N2C[C@@H](C)OC[C@H]2C)c2[nH]c(N)c(S(=O)(=O)c3ccccc3F)c2n1` [Example 232, 4-[(2R,5R)-2,5-dimethylmorpholin-4-yl]-7-(2-fluorobenzenesulfonyl)-2-methyl-5H-pyrrolo[3,2-d]pyrimidin-6-amine] had a pEC50 of 8.52.
